Test results taken from PubChem BioAssay AID2060483 (Molecular Pharmacology Branch, DTP, NCI, 2025).
Blank lines part the entries; values can stand above or below the molecule they belong to.

Test system: K24384-001-R-PDC complex spheroids, viability
Assay: Anticancer human tumor K24384-001-R-PDC patient-derived pancreatic adenocarcinoma cell line growth inhibition [GQUAD]
Conditions: for IC50: curve of first compound; for viability, T/C: stronger effect = lower value
Method in brief: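 Tumor cells were grown as complex spheroids with HUVEC endothelial cells and mesenchymal stem cells as stroma. G-quadruplex stabilizers were combined with targeted agents over half-log dilutions from near the clinical Cmax, or from 10 microM.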

[1] = second compound 0.0316 µM, first compound 0.0316 µM
[2] = second compound 0.0316 µM, first compound 0.1 µM
[3] = second compound 0.0316 µM, first compound 0.316 µM
[4] = second compound 0.0316 µM, first compound 1 µM
[5] = second compound 0.0316 µM, first compound 3.16 µM
[6] = second compound 0.0316 µM, first compound 10 µM
[7] = second compound 0.1 µM, first compound 0.0316 µM
[8] = second compound 0.1 µM, first compound 0.1 µM
[9] = second compound 0.1 µM, first compound 0.316 µM
[10] = second compound 0.1 µM, first compound 1 µM
[11] = second compound 0.1 µM, first compound 3.16 µM
[12] = second compound 0.1 µM, first compound 10 µM
[13] = second compound 0.316 µM, first compound 0.0316 µM
[14] = second compound 0.316 µM, first compound 0.1 µM
[15] = second compound 0.316 µM, first compound 0.316 µM
[16] = second compound 0.316 µM, first compound 1 µM
[17] = second compound 0.316 µM, first compound 3.16 µM
[18] = second compound 0.316 µM, first compound 10 µM
[19] = second compound 1 µM, first compound 0.0316 µM
[20] = second compound 1 µM, first compound 0.1 µM
[21] = second compound 1 µM, first compound 0.316 µM
[22] = second compound 1 µM, first compound 1 µM
[23] = second compound 1 µM, first compound 3.16 µM
[24] = second compound 1 µM, first compound 10 µM
[25] = second compound 3.16 µM, first compound 0.0316 µM
[26] = second compound 3.16 µM, first compound 0.1 µM
[27] = second compound 3.16 µM, first compound 0.316 µM
[28] = second compound 3.16 µM, first compound 1 µM
[29] = second compound 3.16 µM, first compound 3.16 µM
[30] = second compound 3.16 µM, first compound 10 µM
[31] = second compound 10 µM, first compound 0.0316 µM
[32] = second compound 10 µM, first compound 0.1 µM
[33] = second compound 10 µM, first compound 0.316 µM
[34] = second compound 10 µM, first compound 1 µM
[35] = second compound 10 µM, first compound 3.16 µM
[36] = second compound 10 µM, first compound 10 µM
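Further: spheroids exposed to compounds for seven days.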

IC50 (second compound 0.0316 µM): > 10000 nM | IC50 (second compound 0.1 µM): > 10000 nM | IC50 (second compound 0.316 µM): < 31.6 nM | IC50 (second compound 1 µM): < 31.6 nM | IC50 (second compound 3.16 µM): < 31.6 nM | IC50 (second compound 10 µM): < 31.6 nM
SMILES: COc1ncnc(C2CC2)c1-c1ncc2cnn(Cc3ccc(-c4nc(C(F)(F)F)cn4C(C)C)cc3)c2n1 + Cc1cnc(CNC(=O)c2c(=O)c3ccc(N4CCCN(C)CC4)nc3n3c2sc2ccccc23)cn1
viability, T/C [1]: 85.9% | viability, T/C [2]: 90.3% | viability, T/C [3]: 78% | viability, T/C [4]: 84.6% | viability, T/C [5]: 69.1% | viability, T/C [6]: 94.5% | viability, T/C [7]: 46.1% | viability, T/C [8]: 71% | viability, T/C [9]: 71.6% | viability, T/C [10]: 52.2% | viability, T/C [11]: 57.4% | viability, T/C [12]: 79.5% | viability, T/C [13]: 44.5% | viability, T/C [14]: 43.5% | viability, T/C [15]: 43.3% | viability, T/C [16]: 43.2% | viability, T/C [17]: 65.1% | viability, T/C [18]: 46.4% | viability, T/C [19]: 43.6% | viability, T/C [20]: 46.7% | viability, T/C [21]: 41% | viability, T/C [22]: 44.7% | viability, T/C [23]: 42.9% | viability, T/C [24]: 36.1% | viability, T/C [25]: 31.5% | viability, T/C [26]: 34% | viability, T/C [27]: 33% | viability, T/C [28]: 42.1% | viability, T/C [29]: 39.1% | viability, T/C [30]: 29% | viability, T/C [31]: 24% | viability, T/C [32]: 13.7% | viability, T/C [33]: 23.1% | viability, T/C [34]: 20.8% | viability, T/C [35]: 17.1% | viability, T/C [36]: 0.33%

SMILES: CC1COCCN1c1cc(C2(O)CC3CCC(C2)O3)c2cnn(-c3ccn[nH]3)c2n1 (stereo unspecified) + CN(C)c1ccc(Nc2c3ccc(NC(=O)CCN4CCCC4)cc3nc3cc(NC(=O)CCN4CCCC4)ccc23)cc1
IC50 (second compound 0.0316 µM): 103 nM | IC50 (second compound 0.1 µM): 74.6 nM | IC50 (second compound 0.316 µM): 74.3 nM | IC50 (second compound 1 µM): 68.6 nM | IC50 (second compound 3.16 µM): 61.6 nM | IC50 (second compound 10 µM): 119 nM | viability, T/C [1]: 56.5% | viability, T/C [2]: 52% | viability, T/C [3]: 33.5% | viability, T/C [4]: 23.8% | viability, T/C [5]: 25.4% | viability, T/C [6]: 14.3% | viability, T/C [7]: 68% | viability, T/C [8]: 43.9% | viability, T/C [9]: 29.6% | viability, T/C [10]: 25.1% | viability, T/C [11]: 26.6% | viability, T/C [12]: 15% | viability, T/C [13]: 70.3% | viability, T/C [14]: 44% | viability, T/C [15]: 24.6% | viability, T/C [16]: 26% | viability, T/C [17]: 27.2% | viability, T/C [18]: 14.1% | viability, T/C [19]: 62.8% | viability, T/C [20]: 45% | viability, T/C [21]: 27.1% | viability, T/C [22]: 27.7% | viability, T/C [23]: 27.3% | viability, T/C [24]: 13.3% | viability, T/C [25]: 63.2% | viability, T/C [26]: 40.5% | viability, T/C [27]: 24.9% | viability, T/C [28]: 27.9% | viability, T/C [29]: 24.9% | viability, T/C [30]: 12.9% | viability, T/C [31]: 76.2% | viability, T/C [32]: 48.5% | viability, T/C [33]: 35.7% | viability, T/C [34]: 32.5% | viability, T/C [35]: 25.4% | viability, T/C [36]: 12.3%

SMILES: COc1cccc2c1C(=O)c1c(O)c3c(c(O)c1C2=O)CC(O)(C(=O)CO)CC3OC1CC(N)C(O)C(C)O1 (stereo unspecified) + CN(C)c1ccc(Nc2c3ccc(NC(=O)CCN4CCCC4)cc3nc3cc(NC(=O)CCN4CCCC4)ccc23)cc1
IC50 (second compound 0.0316 µM): 215 nM | IC50 (second compound 0.1 µM): 183 nM | IC50 (second compound 0.316 µM): 120 nM | IC50 (second compound 1 µM): 148 nM | IC50 (second compound 3.16 µM): 169 nM | IC50 (second compound 10 µM): 244 nM | viability, T/C [1]: 94.6% | viability, T/C [2]: 57.3% | viability, T/C [3]: 54.4% | viability, T/C [4]: 18.4% | viability, T/C [5]: 4.88% | viability, T/C [6]: 3.9% | viability, T/C [7]: 92.5% | viability, T/C [8]: 63.3% | viability, T/C [9]: 38.2% | viability, T/C [10]: 19.1% | viability, T/C [11]: 5.65% | viability, T/C [12]: 3.5% | viability, T/C [13]: 79.4% | viability, T/C [14]: 51.2% | viability, T/C [15]: 35.3% | viability, T/C [16]: 20.8% | viability, T/C [17]: 6.33% | viability, T/C [18]: 4.16% | viability, T/C [19]: 90.7% | viability, T/C [20]: 53.8% | viability, T/C [21]: 39.3% | viability, T/C [22]: 20.4% | viability, T/C [23]: 5.66% | viability, T/C [24]: 4.15% | viability, T/C [25]: 83.2% | viability, T/C [26]: 56.4% | viability, T/C [27]: 39.2% | viability, T/C [28]: 29.3% | viability, T/C [29]: 5.72% | viability, T/C [30]: 5.1% | viability, T/C [31]: 80.9% | viability, T/C [32]: 101% | viability, T/C [33]: 38% | viability, T/C [34]: 35% | viability, T/C [35]: 9.76% | viability, T/C [36]: 2.73%
